According to patent US20260201008A1, “SECRETIN-DERIVED GLP1R SELECTIVE AGONISTS” (GUBRA A/S, priority 2023, published 2026):
Read-outs that look alike come from different tables or passages of the source. Numbered stars: 1 amine (or outer) side, 2 acyl side, 3 side chain; on linkers, the order of the positions; unused ones are H or OH. Square brackets hold non-standard residues; d marks the D form. Side chains are listed from the residue outwards. Peptide text beside a SMILES is read from it. * marks the point of attachment. C20 diacid = O=C(O)CCCCCCCCCCCCCCCCCCC(=O)*; γGlu = O=C(O)[C@H](CCC(=O)[*:2])N[*:1]; AEEA = NCCOCCOCC(=O)O; Aib = CC(C)(N)C(=O)O

How the values were obtained:
[1] = Fibril formation of crude library peptides (Thioflavin T); type: physicochemical; set-up: key: average ThT fluorescence emission at 480 nm (ex 450 nm), raw units; settings: Physical stability of peptides
In short: (§1)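 Turbidity is the absorbance at 600 nm, taken before heating. Fibril signal is the mean ThT emission at 480 nm (450 nm excitation), read every 10 min over 72 h at 40° C with 700 rpm shaking between reads. Peptides at 267 μM, pH 4.0 acetate or pH 7.0 phosphate buffer (50 mM), 4 μM ThT final.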

GLP1R = GLP1R (Homo sapiens, UniProt P43220); assay: hGLP1R potency, cAMP accumulation in CHO-K1 cells stably overexpressing hGLP1R; type: cell-based; set-up: host or cells: CHO-K1; settings: for EC50: cAMP accumulation; for SCTR EC50/GLP1R EC50 ratio: cAMP accumulation in CHO-K1 cells; for Selectivity: SCTR EC50/GLP1R EC50 ratio
In short: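 EC50 derives from variable-slope nonlinear regression of cAMP HTRF signal, with purified peptides tested as 11 three-fold dilutions in duplicate. Assay: hGLP1R-overexpressing CHO-K1 cells, 0.5 mM IBMX, 0.05% casein in DPBS, 30 min room-temperature stimulation, GLP-1(7-36) as reference agonist.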

SCTR = SCTR (Homo sapiens, UniProt P47872); assay: hSCTR potency, cAMP accumulation in CHO-K1 cells stably overexpressing hSCTR; type: cell-based; set-up: alternatively Euroscreen ES-712-AF; FAST-0161L; host or cells: CHO-K1; settings: cAMP accumulation
In short: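 EC50 derived from variable-slope nonlinear regression on 11-point, 3-fold series run in duplicate (crude peptides: 5 points, 10-fold, n=1). Compound stimulation lasted 30 min at room temperature in casein/IBMX-containing DPBS (0.05%, 0.5 mM), 2000 cells/well; cAMP detected by time-resolved FRET after one hour.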

[2] = Turbidity of crude library peptides (absorbance at 600 nm); type: physicochemical; settings: Physical stability of peptides
In short: as §1

[3] = CHO-K1 cells overexpressing hGLP1R, read-out: hGLP1R pEC50 (converted)
[4] = selectivity for hGLP1R over hSCTR
[5] = CHO-K1 cells overexpressing hSCTR, read-out: hSCTR pEC50 (converted)
[6] = CHO-K1 cells overexpressing hGLP1R, read-out: pEC50 hGLPR1 (converted)
[7] = CHO-K1 cells overexpressing hSCTR, read-out: pEC50 hSCTR (converted)

Sequence of GLP1R (P43220 24-463): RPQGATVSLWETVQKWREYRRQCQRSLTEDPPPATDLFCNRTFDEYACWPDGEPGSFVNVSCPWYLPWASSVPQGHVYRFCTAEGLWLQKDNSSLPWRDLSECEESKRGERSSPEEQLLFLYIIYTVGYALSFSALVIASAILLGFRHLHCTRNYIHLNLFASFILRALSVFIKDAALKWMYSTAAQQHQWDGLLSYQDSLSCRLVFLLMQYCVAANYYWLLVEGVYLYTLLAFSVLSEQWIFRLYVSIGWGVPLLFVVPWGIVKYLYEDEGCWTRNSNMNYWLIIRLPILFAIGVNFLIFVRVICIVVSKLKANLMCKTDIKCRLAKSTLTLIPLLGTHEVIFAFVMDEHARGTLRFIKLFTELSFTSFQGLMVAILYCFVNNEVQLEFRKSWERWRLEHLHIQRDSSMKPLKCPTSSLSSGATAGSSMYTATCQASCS
Sequence of SCTR (P47872 23-440): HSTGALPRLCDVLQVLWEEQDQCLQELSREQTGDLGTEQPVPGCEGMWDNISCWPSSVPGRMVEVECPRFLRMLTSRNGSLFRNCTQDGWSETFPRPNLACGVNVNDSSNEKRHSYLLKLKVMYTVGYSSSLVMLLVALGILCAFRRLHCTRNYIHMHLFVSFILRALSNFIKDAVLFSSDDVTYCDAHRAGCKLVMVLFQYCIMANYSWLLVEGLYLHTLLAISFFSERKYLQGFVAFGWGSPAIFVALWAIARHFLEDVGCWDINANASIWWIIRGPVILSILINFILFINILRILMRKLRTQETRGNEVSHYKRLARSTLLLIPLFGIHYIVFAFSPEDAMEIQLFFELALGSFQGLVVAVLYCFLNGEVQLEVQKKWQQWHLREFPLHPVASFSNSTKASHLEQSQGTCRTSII

Compound: CC[C@H](C)[C@H](NC(=O)[C@H](Cc1ccccc1)NC(=O)[C@H](CCCNC(=N)N)NC(=O)[C@H](CCC(N)=O)NC(=O)[C@H](CC(C)C)NC(=O)[C@H](C)NC(=O)[C@H](C)NC(=O)CNC(=O)[C@H](CCC(=O)O)NC(=O)[C@H](CC(C)C)NC(=O)[C@H](CC(C)C)NC(=O)[C@H](CCCNC(=N)N)NC(=O)[C@H](CO)NC(=O)[C@@H](NC(=O)[C@H](CC(=O)O)NC(=O)[C@H](CO)NC(=O)[C@@H](NC(=O)[C@H](Cc1ccccc1)NC(=O)[C@@H](NC(=O)CNC(=O)[C@H](CCC(=O)O)NC(=O)C(C)(C)NC(=O)[C@@H](N)Cc1c[nH]cn1)[C@@H](C)O)[C@@H](C)O)[C@@H](C)CC)C(=O)N[C@@H](CCC(N)=O)C(=O)N[C@@H](Cc1c[nH]c2ccccc12)C(=O)N[C@@H](CC(C)C)C(=O)N[C@H](C(N)=O)C(C)C [compound 115] (H-H[Aib]EGTFTSDISRLLEGAALQRFIQWLV-NH2)
- Fibril formation [1]: 6433
- EC50 (GLP1R; [3]): 0.0398 nM
- SCTR EC50/GLP1R EC50 ratio (GLP1R; [4]): 459
- EC50 (SCTR; [5]): 15.8 nM
- Turbidity (pH 7) [2]: 0.48

Compound: CC(C)C[C@H](NC(=O)[C@H](Cc1ccccc1)NC(=O)[C@H](CCCNC(=N)N)NC(=O)[C@H](CCC(N)=O)NC(=O)[C@H](CCC(=O)O)NC(=O)[C@H](C)NC(=O)[C@H](C)NC(=O)C(C)(C)NC(=O)[C@H](CCC(=O)O)NC(=O)[C@H](CCCCNC(=O)COCCOCCNC(=O)COCCOCCNC(=O)CC[C@H](NC(=O)CCCCCCCCCCCCCCCCCCC(=O)O)C(=O)O)NC(=O)[C@H](CC(C)C)NC(=O)[C@@H](NC(=O)[C@H](CO)NC(=O)[C@@H](NC(=O)[C@H](CC(=O)O)NC(=O)[C@H](CO)NC(=O)[C@@H](NC(=O)[C@H](Cc1ccccc1)NC(=O)[C@@H](NC(=O)CNC(=O)[C@H](CCC(=O)O)NC(=O)C(C)(C)NC(=O)[C@@H](N)Cc1c[nH]cn1)[C@@H](C)O)[C@@H](C)O)C(C)C)[C@@H](C)O)C(=O)N[C@@H](CCC(=O)O)C(=O)N[C@@H](Cc1c[nH]cn1)C(=O)N[C@@H](CC(C)C)C(=O)N[C@H](C(N)=O)C(C)C [compound 16] (H-H[Aib]EGTFTSDVSTLK([AEEA-AEEA-γGlu-C20 diacid])E[Aib]AAEQRFLEHLV-NH2)
- Fibril formation [1]: 11719
- Selectivity (GLP1R): 2876
- EC50 (GLP1R; [6]): 0.0398 nM
- EC50 (SCTR; [7]): 126 nM
- Turbidity (pH 7) [2]: 0.08

Compound: CC[C@H](C)[C@H](NC(=O)[C@H](Cc1ccccc1)NC(=O)[C@H](CCCNC(=N)N)NC(=O)[C@H](CCC(N)=O)NC(=O)[C@H](CC(C)C)NC(=O)[C@H](C)NC(=O)[C@H](C)NC(=O)CNC(=O)[C@H](CCC(=O)O)NC(=O)[C@H](CC(C)C)NC(=O)[C@H](CC(C)C)NC(=O)[C@H](Cc1c[nH]c2ccccc12)NC(=O)[C@H](CO)NC(=O)[C@@H](NC(=O)[C@H](CC(=O)O)NC(=O)[C@H](CO)NC(=O)[C@@H](NC(=O)[C@H](Cc1ccccc1)NC(=O)[C@@H](NC(=O)CNC(=O)[C@H](CCC(=O)O)NC(=O)C(C)(C)NC(=O)[C@@H](N)Cc1c[nH]cn1)[C@@H](C)O)[C@@H](C)O)C(C)C)C(=O)N[C@@H](CCC(N)=O)C(=O)N[C@@H](Cc1c[nH]c2ccccc12)C(=O)N[C@@H](CC(C)C)C(=O)N[C@H](C(N)=O)C(C)C [compound 183] (H-H[Aib]EGTFTSDVSWLLEGAALQRFIQWLV-NH2)
- Fibril formation [1]: 172171
- EC50 (GLP1R; [3]): 0.0501 nM
- SCTR EC50/GLP1R EC50 ratio (GLP1R; [4]): 3127
- EC50 (SCTR; [5]): 158 nM
- Turbidity (pH 7) [2]: 0.67

Compound: CC(C)C[C@H](NC(=O)[C@H](Cc1ccccc1)NC(=O)[C@H](CCCNC(=N)N)NC(=O)[C@H](CCC(N)=O)NC(=O)[C@H](CC(C)C)NC(=O)C(C)(C)NC(=O)[C@H](C)NC(=O)[C@H](CCC(=O)O)NC(=O)[C@H](CCC(=O)O)NC(=O)[C@H](CCCCNC(=O)COCCOCCNC(=O)COCCOCCNC(=O)CC[C@H](NC(=O)CCCCCCCCCCCCCCCCCCC(=O)O)C(=O)O)NC(=O)[C@H](CC(C)C)NC(=O)[C@H](Cc1ccccc1)NC(=O)[C@H](CO)NC(=O)[C@@H](NC(=O)[C@H](CC(=O)O)NC(=O)[C@H](CO)NC(=O)[C@@H](NC(=O)[C@H](Cc1ccccc1)NC(=O)[C@@H](NC(=O)CNC(=O)[C@H](CCC(=O)O)NC(=O)C(C)(C)NC(=O)[C@@H](N)Cc1c[nH]cn1)[C@@H](C)O)[C@@H](C)O)C(C)C)C(=O)N[C@@H](CCC(=O)O)C(=O)N[C@@H](Cc1c[nH]cn1)C(=O)N[C@@H](CC(C)C)C(=O)N[C@H](C(N)=O)C(C)C [compound 173] (H-H[Aib]EGTFTSDVSFLK([AEEA-AEEA-γGlu-C20 diacid])EEA[Aib]LQRFLEHLV-NH2)
- Fibril formation [1]: 2836
- EC50 (GLP1R; [3]): 0.0126 nM
- SCTR EC50/GLP1R EC50 ratio (GLP1R; [4]): 13696
- EC50 (SCTR; [5]): 158 nM
- Turbidity (pH 7) [2]: 0.08

Compound: CC(C)C[C@H](NC(=O)[C@H](Cc1ccccc1)NC(=O)[C@H](CCCNC(=N)N)NC(=O)[C@H](CCC(N)=O)NC(=O)[C@H](CCC(N)=O)NC(=O)[C@H](C)NC(=O)[C@H](C)NC(=O)C(C)(C)NC(=O)[C@H](CCC(=O)O)NC(=O)[C@H](CCCCNC(=O)COCCOCCNC(=O)COCCOCCNC(=O)CC[C@H](NC(=O)CCCCCCCCCCCCCCCCCCC(=O)O)C(=O)O)NC(=O)[C@H](CC(C)C)NC(=O)[C@@H](NC(=O)[C@H](CO)NC(=O)[C@@H](NC(=O)[C@H](CC(=O)O)NC(=O)[C@H](CO)NC(=O)[C@@H](NC(=O)[C@H](Cc1ccccc1)NC(=O)[C@@H](NC(=O)CNC(=O)[C@H](CCC(=O)O)NC(=O)C(C)(C)NC(=O)[C@@H](N)Cc1c[nH]cn1)[C@@H](C)O)[C@@H](C)O)C(C)C)C(C)C)C(=O)N[C@@H](CCC(=O)O)C(=O)N[C@@H](Cc1c[nH]cn1)C(=O)N[C@@H](CC(C)C)C(=O)N[C@H](C(N)=O)C(C)C [compound 40] (H-H[Aib]EGTFTSDVSVLK([AEEA-AEEA-γGlu-C20 diacid])E[Aib]AAQQRFLEHLV-NH2)
- Fibril formation [1]: 12180
- Selectivity (GLP1R): 21943
- EC50 (GLP1R; [6]): 0.02 nM
- EC50 (SCTR; [7]): 398 nM
- Turbidity (pH 7) [2]: 0.08

Compound: CC[C@H](C)[C@H](NC(=O)[C@H](Cc1ccccc1)NC(=O)[C@H](CCCNC(=N)N)NC(=O)[C@H](CCC(N)=O)NC(=O)[C@H](CC(C)C)NC(=O)[C@H](C)NC(=O)[C@H](C)NC(=O)CNC(=O)[C@H](CCC(=O)O)NC(=O)[C@H](CC(C)C)NC(=O)[C@H](CC(C)C)NC(=O)[C@H](CCC(=O)O)NC(=O)[C@H](CO)NC(=O)C(C)(C)NC(=O)[C@H](CC(=O)O)NC(=O)[C@H](CO)NC(=O)[C@@H](NC(=O)[C@H](Cc1ccccc1)NC(=O)[C@@H](NC(=O)CNC(=O)[C@H](CCC(=O)O)NC(=O)C(C)(C)NC(=O)[C@@H](N)Cc1c[nH]cn1)[C@@H](C)O)[C@@H](C)O)C(=O)N[C@@H](CCC(N)=O)C(=O)N[C@@H](Cc1c[nH]c2ccccc12)C(=O)N[C@@H](CC(C)C)C(=O)N[C@H](C(N)=O)C(C)C [compound 109] (H-H[Aib]EGTFTSD[Aib]SELLEGAALQRFIQWLV-NH2)
- Fibril formation [1]: 3301
- EC50 (GLP1R; [3]): 0.0794 nM
- SCTR EC50/GLP1R EC50 ratio (GLP1R; [4]): 39765
- EC50 (SCTR; [5]): 3160 nM
- Turbidity (pH 7) [2]: 0.08

Compound: CC[C@H](C)[C@H](NC(=O)[C@H](Cc1ccccc1)NC(=O)[C@H](CCCNC(=N)N)NC(=O)[C@H](CCC(N)=O)NC(=O)[C@H](CC(C)C)NC(=O)[C@H](C)NC(=O)[C@H](C)NC(=O)CNC(=O)[C@H](CCC(=O)O)NC(=O)[C@H](CC(C)C)NC(=O)[C@H](CC(C)C)NC(=O)C(C)(C)NC(=O)[C@H](CO)NC(=O)[C@H](Cc1c[nH]c2ccccc12)NC(=O)[C@H](CC(=O)O)NC(=O)[C@H](CO)NC(=O)[C@@H](NC(=O)[C@H](Cc1ccccc1)NC(=O)[C@@H](NC(=O)CNC(=O)[C@H](CCC(=O)O)NC(=O)C(C)(C)NC(=O)[C@@H](N)Cc1c[nH]cn1)[C@@H](C)O)[C@@H](C)O)C(=O)N[C@@H](CCC(N)=O)C(=O)N[C@@H](Cc1c[nH]c2ccccc12)C(=O)N[C@@H](CC(C)C)C(=O)N[C@H](C(N)=O)C(C)C [compound 192] (H-H[Aib]EGTFTSDWS[Aib]LLEGAALQRFIQWLV-NH2)
- Fibril formation [1]: 29535
- EC50 (GLP1R; CHO-K1 cells stably overexpressing hGLP1R, read-out: hGLP1R potency (pEC50) (converted)): 0.126 nM
- SCTR EC50/GLP1R EC50 ratio (GLP1R; selectivity ratio, hSCTR vs hGLP1R): 383
- EC50 (SCTR; CHO-K1 cells stably overexpressing hSCTR, read-out: hSCTR potency (pEC50) (converted)): 50.1 nM
- Turbidity (pH 7) [2]: 0.54
